From patent publication US20250171457A1, “NITROGEN-CONTAINING HETEROCYCLIC COMPOUND HAVING NRF2 ACTIVATION EFFECT” (CHUGAI SEIYAKU KABUSHIKI KAISHA, priority 2022, published 2025) come the findings set out here.

The test system of the test is Nrf2 transcriptional activity (pARE-Luc reporter) in HepG2 cells. Put plainly: In vitro Nrf2 transcriptional activity measurement by ARE-dependent reporter assay in HepG2 cell. Type of test: cell-based, human. The following applies: Homo sapiens; HepG2 cells transfected with pARE-Luc, 4 hours at 37° C.; luciferase activity of Example 1-54 or Example 17-23 at 3.75 μM defined as 100%. The method, boiled down:
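Luminescence readout (Bright-Glo) after 4 h, 37° C compound exposure of HepG2 cells carrying the ARE-luciferase vector pGL4.37. Each well converted to % response versus reference compound at 3.75 μM, and EC50 derived from dose-response curves.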

pEC50: −log10 of the molar value.

What is called pEC50 is −log10 of the EC50, conventionally taken in molar units. The compound `O=C(O)c1cc(F)c(-c2cccc3c2OCN(C(=O)c2c(Cl)cc(-c4cnc5n4CCC5)cc2Cl)C3)cc1N1C2CCC1COC2` [Compound 3-22, 4-[3-[2,6-Dichloro-4-(6,7-dihydro-5H-pyrrolo[1,2-a]imidazol-3-yl)benzoyl]-2,4-dihydro-1,3-benzoxazin-8-yl]-5-fluoro-2-(3-oxa-8-azabicyclo[3.2.1]octan-8-yl)benzoic acid] had a pEC50 of 7.68.
For `O=C(O)c1cc(F)c(-c2cccc3c2OCN(C(=O)c2c(Cl)cc(-c4cc5ccccc5o4)cc2Cl)C3)cc1N1C2CCC1COC2` [Compound 3-23, 4-[3-[4-(1-Benzofuran-2-yl)-2,6-dichlorobenzoyl]-2,4-dihydro-1,3-benzoxazin-8-yl]-5-fluoro-2-(3-oxa-8-azabicyclo[3.2.1]octan-8-yl)benzoic acid] the value was 7.68; for `O=C(O)c1cc(F)c(-c2cccc3c2OCN(C(=O)c2c(Cl)cc(-c4cccc5ccoc45)cc2Cl)C3)cc1N1C2CCC1COC2` [Compound 3-24, 4-[3-[4-(1-Benzofuran-7-yl)-2,6-dichlorobenzoyl]-2,4-dihydro-1,3-benzoxazin-8-yl]-5-fluoro-2-(3-oxa-8-azabicyclo[3.2.1]octan-8-yl)benzoic acid], 7.51.
Regarding `O=C(O)c1cc(F)c(-c2cccc3c2OCN(C(=O)c2c(Cl)cc(-c4cncc5ccoc45)cc2Cl)C3)cc1N1C2CCC1COC2` [Compound 3-25, 4-[3-(2,6-Dichloro-4-furo[3,2-c]pyridin-7-ylbenzoyl)-2,4-dihydro-1,3-benzoxazin-8-yl]-5-fluoro-2-(3-oxa-8-azabicyclo[3.2.1]octan-8-yl)benzoic acid], the pEC50 was 8.11. Compared with the last compound, the pEC50 is 0.60 log units higher.
For `COc1ncc(-c2cc(Cl)c(C(=O)N3COc4c(cccc4-c4cc(N5C6CCC5COC6)c(C(=O)O)cc4F)C3)c(Cl)c2)c2nn(C)nc12` [Compound 3-26, 4-[3-[2,6-Dichloro-4-(4-methoxy-2-methyltriazolo[4,5-c]pyridin-7-yl)benzoyl]-2,4-dihydro-1,3-benzoxazin-8-yl]-5-fluoro-2-(3-oxa-8-azabicyclo[3.2.1]octan-8-yl)benzoic acid] the value was 8.01.
For `COc1ncc(-c2cc(Cl)c(C(=O)N3COc4c(cccc4-c4cc(N5C6CCC5COC6)c(C(=O)O)cc4F)C3)c(Cl)c2)c2nnn(C)c12` [Compound 3-27, 4-[3-[2,6-Dichloro-4-(4-methoxy-3-methyltriazolo[4,5-c]pyridin-7-yl)benzoyl]-2,4-dihydro-1,3-benzoxazin-8-yl]-5-fluoro-2-(3-oxa-8-azabicyclo[3.2.1]octan-8-yl)benzoic acid] the value was 8.06.
Compound `COCCn1cc(-c2cc(Cl)c(C(=O)N3COc4c(cccc4-c4ccc(C(=O)O)c(N5CCOCC5)c4)C3)c(Cl)c2)cn1` [Compound 3-28, 4-[3-[2,6-Dichloro-4-[1-(2-methoxyethyl)pyrazol-4-yl]benzoyl]-2,4-dihydro-1,3-benzoxazin-8-yl]-2-morpholin-4-ylbenzoic acid] had a pEC50 of 8.68.
For `COC1CN(c2cc(Cl)c(C(=O)N3COc4c(cccc4-c4cc(N5C6CCC5COC6)c(C(=O)O)cc4F)C3)c(Cl)c2)C1` [Compound 4-1, 4-[3-[2,6-Dichloro-4-(3-methoxyazetidin-1-yl)benzoyl]-2,4-dihydro-1,3-benzoxazin-8-yl]-5-fluoro-2-(3-oxa-8-azabicyclo[3.2.1]octan-8-yl)benzoic acid] the value was 8.51; for `CCOC1(C)CN(c2cc(Cl)c(C(=O)N3COc4c(cccc4-c4cc(N5C6CCC5COC6)c(C(=O)O)cc4F)C3)c(Cl)c2)C1` [Compound 4-2, 4-[3-[2,6-Dichloro-4-(3-ethoxy-3-methylazetidin-1-yl)benzoyl]-2,4-dihydro-1,3-benzoxazin-8-yl]-5-fluoro-2-(3-oxa-8-azabicyclo[3.2.1]octan-8-yl)benzoic acid], 8.92.
The compound `CCC1(OC)CN(c2cc(Cl)c(C(=O)N3COc4c(cccc4-c4cc(N5C6CCC5COC6)c(C(=O)O)cc4F)C3)c(Cl)c2)C1` [Compound 4-3, 4-[3-[2,6-Dichloro-4-(3-ethyl-3-methoxyazetidin-1-yl)benzoyl]-2,4-dihydro-1,3-benzoxazin-8-yl]-5-fluoro-2-(3-oxa-8-azabicyclo[3.2.1]octan-8-yl)benzoic acid] showed a pEC50 of 8.77.
The value for `COCC1CN(c2cc(Cl)c(C(=O)N3COc4c(cccc4-c4cc(N5C6CCC5COC6)c(C(=O)O)cc4F)C3)c(Cl)c2)C1` [Compound 4-4, 4-[3-[2,6-Dichloro-4-[3-(methoxymethyl)azetidin-1-yl]benzoyl]-2,4-dihydro-1,3-benzoxazin-8-yl]-5-fluoro-2-(3-oxa-8-azabicyclo[3.2.1]octan-8-yl)benzoic acid] was 8.49; that for `COC1(C)CN(c2cc(Cl)c(C(=O)N3COc4c(cccc4-c4cc(N5C6CCC5COC6)c(C(=O)O)cc4F)C3)c(Cl)c2)C1` [Compound 4-5, 4-[3-[2,6-Dichloro-4-(3-methoxy-3-methylazetidin-1-yl)benzoyl]-2,4-dihydro-1,3-benzoxazin-8-yl]-5-fluoro-2-(3-oxa-8-azabicyclo[3.2.1]octan-8-yl)benzoic acid] was 8.89; that for `O=C(O)c1cc(F)c(-c2cccc3c2OCN(C(=O)c2c(Cl)cc(N4CC5(COC5)C4)cc2Cl)C3)cc1N1C2CCC1COC2` [Compound 4-6, 4-[3-[2,6-Dichloro-4-(2-oxa-6-azaspiro[3.3]heptan-6-yl)benzoyl]-2,4-dihydro-1,3-benzoxazin-8-yl]-5-fluoro-2-(3-oxa-8-azabicyclo[3.2.1]octan-8-yl)benzoic acid] was 8.10.
In turn, `O=C(O)c1cc(F)c(-c2cccc3c2OCN(C(=O)c2c(Cl)cc(N4CC5(CCC5)C4)cc2Cl)C3)cc1N1C2CCC1COC2` [Compound 4-7, 4-[3-[4-(2-Azaspiro[3.3]heptan-2-yl)-2,6-dichlorobenzoyl]-2,4-dihydro-1,3-benzoxazin-8-yl]-5-fluoro-2-(3-oxa-8-azabicyclo[3.2.1]octan-8-yl)benzoic acid] showed a pEC50 of 8.48. This pEC50 lies 0.38 log units higher than the previous one.
For the compound `O=C(O)c1cc(F)c(-c2cccc3c2OCN(C(=O)c2c(Cl)cc(N4CCN5CCC[C@@H]5C4)cc2Cl)C3)cc1N1C2CCC1COC2` [Compound 4-9, 4-[3-[4-[(8aR)-3,4,6,7,8,8a-Hexahydro-1H-pyrrolo[1,2-a]pyrazin-2-yl]-2,6-dichlorobenzoyl]-2,4-dihydro-1,3-benzoxazin-8-yl]-5-fluoro-2-(3-oxa-8-azabicyclo[3.2.1]octan-8-yl)benzoic acid], the pEC50 is 8.66.
For `O=C(O)c1cc(F)c(-c2cccc3c2OCN(C(=O)c2c(Cl)cc(N4CCN(C5CCOC5)CC4)cc2Cl)C3)cc1N1C2CCC1COC2` (centres unmarked) [Compound 4-10, 4-[3-[2,6-Dichloro-4-[4-(oxolan-3-yl)piperazin-1-yl]benzoyl]-2,4-dihydro-1,3-benzoxazin-8-yl]-5-fluoro-2-(3-oxa-8-azabicyclo[3.2.1]octan-8-yl)benzoic acid] the value was 8.38; for `O=C(O)c1cc(F)c(-c2cccc3c2OCN(C(=O)c2c(Cl)cc(N4CCNC5(CC5)C4)cc2Cl)C3)cc1N1C2CCC1COC2` [Compound 4-11, 4-[3-[2,6-Dichloro-4-(4,7-diazaspiro[2.5]octan-7-yl)benzoyl]-2,4-dihydro-1,3-benzoxazin-8-yl]-5-fluoro-2-(3-oxa-8-azabicyclo[3.2.1]octan-8-yl)benzoic acid], 7.60; for `O=C(O)c1cc(F)c(-c2cccc3c2OCN(C(=O)c2c(Cl)cc(N4CCN(C5CC5)CC4)cc2Cl)C3)cc1N1C2CCC1COC2` [Compound 4-12, 4-[3-[2,6-Dichloro-4-(4-cyclopropylpiperazin-1-yl)benzoyl]-2,4-dihydro-1,3-benzoxazin-8-yl]-5-fluoro-2-(3-oxa-8-azabicyclo[3.2.1]octan-8-yl)benzoic acid], 8.68.
The value for `O=C(O)c1cc(F)c(-c2cccc3c2OCN(C(=O)c2c(Cl)cc(N4CCN5CCOC[C@@H]5C4)cc2Cl)C3)cc1N1C2CCC1COC2` [Compound 4-13, 4-[3-[4-[(9aS)-3,4,6,7,9,9a-Hexahydro-1H-pyrazino[2,1-c][1,4]oxazin-8-yl]-2,6-dichlorobenzoyl]-2,4-dihydro-1,3-benzoxazin-8-yl]-5-fluoro-2-(3-oxa-8-azabicyclo[3.2.1]octan-8-yl)benzoic acid] was 8.24.
For `O=C(O)c1cc(F)c(-c2cccc3c2OCN(C(=O)c2c(Cl)cc(N4CCN5CCOC[C@H]5C4)cc2Cl)C3)cc1N1C2CCC1COC2` [Compound 4-14, 4-[3-[4-[(9aR)-3,4,6,7,9,9a-Hexahydro-1H-pyrazino[2,1-c][1,4]oxazin-8-yl]-2,6-dichlorobenzoyl]-2,4-dihydro-1,3-benzoxazin-8-yl]-5-fluoro-2-(3-oxa-8-azabicyclo[3.2.1]octan-8-yl)benzoic acid] the value was 8.05.
`CC(C)(O)CN1CCN(c2cc(Cl)c(C(=O)N3COc4c(cccc4-c4cc(N5C6CCC5COC6)c(C(=O)O)cc4F)C3)c(Cl)c2)CC1` [Compound 4-15, 4-[3-[2,6-Dichloro-4-[4-(2-hydroxy-2-methylpropyl)piperazin-1-yl]benzoyl]-2,4-dihydro-1,3-benzoxazin-8-yl]-5-fluoro-2-(3-oxa-8-azabicyclo[3.2.1]octan-8-yl)benzoic acid]: the pEC50 was 8.51.
`O=C(O)c1cc(F)c(-c2cccc3c2OCN(C(=O)c2c(Cl)cc(N4CCN(CC5CCCO5)CC4)cc2Cl)C3)cc1N1C2CCC1COC2` (centres unmarked) [Compound 4-16, 4-[3-[2,6-Dichloro-4-[4-(oxolan-2-ylmethyl)piperazin-1-yl]benzoyl]-2,4-dihydro-1,3-benzoxazin-8-yl]-5-fluoro-2-(3-oxa-8-azabicyclo[3.2.1]octan-8-yl)benzoic acid]: the pEC50 was 8.54.
The value for `O=C(O)c1cc(F)c(-c2cccc3c2OCN(C(=O)c2c(Cl)cc(N4C[C@@H]5C[C@H]4CO5)cc2Cl)C3)cc1N1C2CCC1COC2` [Compound 4-17, 4-[3-[2,6-Dichloro-4-[(1S,4S)-2-oxa-5-azabicyclo[2.2.1]heptan-5-yl]benzoyl]-2,4-dihydro-1,3-benzoxazin-8-yl]-5-fluoro-2-(3-oxa-8-azabicyclo[3.2.1]octan-8-yl)benzoic acid] was 8.40.
